Assay results published in ChEMBL document CHEMBL3297705, “Discovery of 5,6,7,8-tetrahydropyrido[3,4-d]pyrimidine inhibitors of Erk2” (Bioorg Med Chem Lett, 2014).
Values belong to the compound of their own block, whether it stands above or below them.

What was measured:
[1] = Plasma protein binding in human; type: ADME, cell-free; settings: read-out: PPB (converted)
[2] = target: T1, Mitogen-activated protein kinase 1 (Homo sapiens, UniProt P28482)
Description: Inhibition of ERK2 in human HepG2 cells assessed as P90RSK phosphorylation at Ser380 after 1.5 hrs by fluorescence assay

[3] = target: T1, Mitogen-activated protein kinase 1; remark: listed apart in the source
Description: Inhibition of human recombinant N-terminal 6-His-tagged ERK2 expressed in Escherichia coli using S/T17 as substrate after 30 mins by spectrophotometry

[4] = target: Cyclin-dependent kinase 2 (Homo sapiens, UniProt P24941)
Description: Inhibition of Cdk2 (unknown origin)

[5] = Tmax in NCR nude mouse at 100 mg/kg, po; type: ADME, organism-based; design: dose 100 mg/kg, route oral; settings: in vivo
[6] = Antiproliferative activity against human HCT116 cells expressing K-Ras […] mutant after 72 hrs by Cell-Titre Blue assay; type: functional, cell-based; settings: HCT-116, 72 h
[7] = Oral bioavailability in beagle dog at 2 mg/kg; type: ADME, organism-based, Canis lupus familiaris; settings: in vivo
[8] = Oral bioavailability in NCR nude mouse at 30 mg/kg; type: ADME, organism-based; settings: in vivo
A-375 = assay: Antiproliferative activity against human A375 cells expressing B-Raf V600E mutant after 72 hrs by Cell-Titre Blue assay; type: functional, cell-based; settings: A-375, 72 h
[9] = Tmax in beagle dog at 2 mg/kg, po; type: ADME, organism-based, Canis lupus familiaris; design: dose 2 mg/kg, route oral; settings: in vivo
Mus musculus [10] = assay: In vivo inhibition of ERK2 in nude mouse xenografted with human HCT116 cells assessed as pRSK knockdown at 75 mg/kg, po qd after 1 hr relative to vehicle-treated control; type: functional; settings: HCT-116, 1 h
[11] = Clearance in NCR nude mouse at 1 mg/kg, iv; type: ADME, organism-based; design: dose 1 mg/kg, route intravenous; settings: in vivo
[12] = AUC (0 to infinity) in NCR nude mouse at 100 mg/kg, po; type: ADME, organism-based; design: time infinity, dose 100 mg/kg, route oral; settings: plasma
[13] = Oral bioavailability in CD-1 mouse at 2 mg/kg; type: ADME, organism-based; settings: in vivo
[14] = Toxicity in po dosed nude mouse xenografted with human HCT116 cells administered bid; type: organism-based, HCT-116; settings: in vivo
[15] = Clearance in CD-1 mouse at 0.5 mg/kg, iv; type: ADME, organism-based; design: dose 0.5 mg/kg, route intravenous; settings: in vivo
Mus musculus [16] = assay: In vivo inhibition of ERK2 in nude mouse xenografted with human HCT116 cells assessed as pRSK knockdown at 150 mg/kg, po qd after 8 hrs relative to vehicle-treated control; type: functional; settings: HCT-116, 8 h
[17] = AUC (0 to infinity) in cynomolgus monkey at 3 mg/kg, po; type: ADME, organism-based, Macaca fascicularis; design: dose 3 mg/kg, route oral, time infinity; settings: plasma
[18] = Half life in NCR nude mouse at 150 mg/kg, po; type: ADME, organism-based; design: dose 150 mg/kg, route oral; settings: in vivo
[19] = AUC (0 to infinity) in Sprague-Dawley rat at 5 mg/kg, po; type: ADME, organism-based; design: time infinity, dose 5 mg/kg, route oral; settings: plasma
[20] = Clearance in beagle dog at 1 mg/kg, iv; type: ADME, organism-based, Canis lupus familiaris; design: dose 1 mg/kg, route intravenous; settings: in vivo
[21] = Tmax in Sprague-Dawley rat at 5 mg/kg, po; type: ADME, organism-based; design: dose 5 mg/kg, route oral; settings: in vivo
Mus musculus [22] = assay: In vivo inhibition of ERK2 in nude mouse xenografted with human HCT116 cells assessed as pRSK knockdown at 75 mg/kg, po qd after 8 hrs relative to vehicle-treated control; type: functional; settings: HCT-116, 8 h
[23] = Half life in NCR nude mouse at 30 mg/kg, po; type: ADME, organism-based; design: dose 30 mg/kg, route oral; settings: in vivo
[24] = Half life in Sprague-Dawley rat at 5 mg/kg, po; type: ADME, organism-based; design: dose 5 mg/kg, route oral; settings: in vivo
[25] = Oral bioavailability in cynomolgus monkey at 3 mg/kg; type: ADME, organism-based, Macaca fascicularis; settings: in vivo
[26] = Half life in NCR nude mouse at 100 mg/kg, po; type: ADME, organism-based; design: dose 100 mg/kg, route oral; settings: in vivo
[27] = Oral bioavailability in NCR nude mouse at 100 mg/kg; type: ADME, organism-based; settings: in vivo
[28] = AUC (0 to infinity) in beagle dog at 2 mg/kg, po; type: ADME, organism-based, Canis lupus familiaris; design: dose 2 mg/kg, route oral, time infinity; settings: plasma
[29] = AUC (0 to infinity) in NCR nude mouse at 30 mg/kg, po; type: ADME, organism-based; design: time infinity, dose 30 mg/kg, route oral; settings: plasma
[30] = Cmax in cynomolgus monkey at 3 mg/kg, po; type: ADME, organism-based, Macaca fascicularis; design: dose 3 mg/kg, route oral; settings: in vivo
[31] = AUC (0 to infinity) in NCR nude mouse at 150 mg/kg, po; type: ADME, organism-based; design: time infinity, dose 150 mg/kg, route oral; settings: plasma
[32] = Clearance in Sprague-Dawley rat at 1 mg/kg, iv; type: ADME, organism-based; design: dose 1 mg/kg, route intravenous; settings: in vivo
Mus musculus [33] = assay: Toxicity in nude mouse xenografted with human HCT116 cells assessed as body weight loss at 150 mg/kg, po bid relative to vehicle-treated control; type: organism-based, HCT-116; design: dose 150 mg/kg, route oral; settings: in vivo
[34] = Cmax in NCR nude mouse at 150 mg/kg, po; type: ADME, organism-based; design: dose 150 mg/kg, route oral; settings: in vivo
[35] = Tmax in cynomolgus monkey at 3 mg/kg, po; type: ADME, organism-based, Macaca fascicularis; design: dose 3 mg/kg, route oral; settings: in vivo
[36] = Tmax in NCR nude mouse at 30 mg/kg, po; type: ADME, organism-based; design: dose 30 mg/kg, route oral; settings: in vivo
[37] = Oral bioavailability in Sprague-Dawley rat at 5 mg/kg; type: ADME, organism-based; settings: in vivo
[38] = Cmax in NCR nude mouse at 100 mg/kg, po; type: ADME, organism-based; design: dose 100 mg/kg, route oral; settings: in vivo
[39] = Half life in beagle dog at 2 mg/kg, po; type: ADME, organism-based, Canis lupus familiaris; design: dose 2 mg/kg, route oral; settings: in vivo
[40] = Tmax in NCR nude mouse at 150 mg/kg, po; type: ADME, organism-based; design: dose 150 mg/kg, route oral; settings: in vivo
[41] = Cmax in Sprague-Dawley rat at 5 mg/kg, po; type: ADME, organism-based; design: dose 5 mg/kg, route oral; settings: in vivo
[42] = Clearance in cynomolgus monkey at 1 mg/kg, iv; type: ADME, organism-based, Macaca fascicularis; design: dose 1 mg/kg, route intravenous; settings: in vivo
[43] = Oral bioavailability in NCR nude mouse at 150 mg/kg; type: ADME, organism-based; settings: in vivo
[44] = Cmax in beagle dog at 2 mg/kg, po; type: ADME, organism-based, Canis lupus familiaris; design: dose 2 mg/kg, route oral; settings: in vivo
[45] = Cmax in NCR nude mouse at 30 mg/kg, po; type: ADME, organism-based; design: dose 30 mg/kg, route oral; settings: in vivo
[46] = Half life in cynomolgus monkey at 3 mg/kg, po; type: ADME, organism-based, Macaca fascicularis; design: dose 3 mg/kg, route oral; settings: in vivo

T1 sequence (P28482 whole entry): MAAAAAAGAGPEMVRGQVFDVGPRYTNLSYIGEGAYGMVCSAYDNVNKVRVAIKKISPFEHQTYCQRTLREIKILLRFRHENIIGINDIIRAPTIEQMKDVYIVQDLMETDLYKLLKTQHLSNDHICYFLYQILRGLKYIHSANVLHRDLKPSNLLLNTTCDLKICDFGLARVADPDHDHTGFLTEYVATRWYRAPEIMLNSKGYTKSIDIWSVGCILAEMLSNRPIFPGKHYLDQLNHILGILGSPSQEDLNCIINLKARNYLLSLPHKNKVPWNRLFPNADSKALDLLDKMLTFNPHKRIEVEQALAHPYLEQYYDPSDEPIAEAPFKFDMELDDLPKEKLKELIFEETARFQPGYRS

Compound: O=C(N[C@H](CO)c1ccc(F)c(Cl)c1)N1CCc2cnc(NCCO)nc2C1
IC50 [2]: 2450 nM | IC50 [3]: 9 nM

Compound: CC(C)Nc1ncc2c(n1)CN(C(=O)NCc1ccc(F)c(Cl)c1)CC2
IC50 [2]: 1220 nM | IC50 [3]: 66 nM

Compound: CC(C)Nc1ncc2c(n1)CN(C(=O)N[C@H](CNCCO)c1ccc(F)c(Cl)c1)CC2
IC50 [2]: 2760 nM | IC50 [3]: 8 nM

Compound: COc1ccc(CNC(=O)N2CCc3cnc(NC(C)C)nc3C2)cc1
IC50 [2]: 4400 nM | IC50 [3]: 106 nM

Compound: CCNc1ncc2c(n1)CN(C(=O)N[C@H](CO)c1ccc(F)c(Cl)c1)CC2
IC50 [2]: 753 nM | IC50 [3]: 20 nM

Compound: CC(C)Nc1ncc2c(n1)CN(C(=O)NCc1cccc(Cl)c1)CC2
IC50 [2]: 1860 nM | IC50 [3]: 89 nM

Compound: O=C(N[C@H](CO)c1ccc(Cl)c(F)c1)N1CCc2cnc(NC3CCOCC3)nc2C1
Tmax [5]: 15 min | EC50 [6]: 740 nM | bioavailability [7]: 26% | bioavailability [8]: 58% | EC50 (A-375): 390 nM | Tmax [9]: 25.2 min | inhibition in vivo at 75 mg/kg (Mus musculus [10]): 75% | clearance [11]: 134 mL/min/kg | AUC(0-inf) [12]: 30 µM·h | bioavailability [13]: 29% | MTD [14]: 50 mg/kg | clearance [15]: 33 mL/min/kg | inhibition in vivo at 150 mg/kg (Mus musculus [16]): 55% | AUC(0-inf) [17]: 0.65 µM·h | half-life [18]: 162 min | AUC(0-inf) [19]: 0.2 µM·h | clearance [20]: 32 mL/min/kg | Tmax [21]: 19.8 min | inhibition in vivo at 75 mg/kg (Mus musculus [22]): 20% | half-life [23]: 144 min | half-life [24]: 102 min | bioavailability [25]: 19% | half-life [26]: 450 min | bioavailability [27]: 73% | AUC(0-inf) [28]: 0.61 µM·h | AUC(0-inf) [29]: 4.81 µM·h | Cmax [30]: 160 nM | AUC(0-inf) [31]: 26.7 µM·h | clearance [32]: 104 mL/min/kg | Activity (Mus musculus [33]): Non-toxic | Cmax [34]: 13900 nM | Tmax [35]: 79.8 min | Tmax [36]: 30 min | bioavailability [37]: 11% | Cmax [38]: 9820 nM | half-life [39]: 36 min | Tmax [40]: 15 min | Cmax [41]: 90 nM | clearance [42]: 33 mL/min/kg | bioavailability [43]: 64% | Cmax [44]: 590 nM | Cmax [45]: 3120 nM | half-life [46]: 312 min

Compound: CNc1ncc2c(n1)CN(C(=O)N[C@H](CO)c1ccc(F)c(Cl)c1)CC2
IC50 [2]: 2260 nM | IC50 [3]: 43 nM

Compound: CC(C)Nc1ncc2c(n1)CN(C(=O)NCc1ccc(Cl)c(F)c1)CC2
IC50 [2]: 1630 nM | IC50 [3]: 81 nM

Compound: C[C@@H](CO)Nc1ncc2c(n1)CN(C(=O)N[C@H](CO)c1ccc(F)c(Cl)c1)CC2
IC50 [2]: 473 nM | IC50 [3]: 3 nM

Compound: CC(C)CNc1ncc2c(n1)CN(C(=O)N[C@H](CO)c1ccc(F)c(Cl)c1)CC2
IC50 [2]: 513 nM | IC50 [3]: 10 nM

Compound: O=C(N[C@H](CO)c1ccc(F)c(Cl)c1)N1CCc2cnc(NC3CCCC3)nc2C1
IC50 [2]: 330 nM | IC50 [3]: 4 nM

Compound: Cc1cc(Nc2ncc3c(n2)CN(C(=O)N[C@H](CO)c2ccc(F)c(Cl)c2)CC3)ccn1
IC50 [2]: 445 nM | IC50 [3]: 7 nM

Compound: Cn1cc(Nc2ncc3c(n2)CN(C(=O)N[C@H](CO)c2ccc(F)c(Cl)c2)CC3)cn1
IC50 [2]: 247 nM | IC50 [3]: 6 nM

Compound: COCCOC[C@@H](NC(=O)N1CCc2cnc(NC(C)C)nc2C1)c1ccc(F)c(Cl)c1
IC50 [2]: 2110 nM | IC50 [3]: 122 nM

Second part, the compound after the results:

fraction unbound [1]: 0.013 | IC50 [2]: 110 nM | IC50 [3]: 3 nM | IC50 [4]: 821 nM
Compound: C[C@@H](CO)Nc1ncc2c(n1)CN(C(=O)N[C@H](C)c1ccc(C(F)(F)F)c(F)c1)CC2

fraction unbound [1]: 0.025 | IC50 [2]: 23 nM | IC50 [3]: 2 nM | IC50 [4]: 12 nM
Compound: CC[C@@H](NC(=O)N1CCc2cnc(N[C@@H](C)CO)nc2C1)c1ccc(Cl)c(Cl)c1

IC50 [2]: 200 nM | IC50 [3]: 6 nM
Compound: CC(C)Nc1ncc2c(n1)CN(C(=O)N[C@@H](c1ccc(F)c(Cl)c1)[C@H](C)O)CC2

IC50 [2]: 198 nM | IC50 [3]: 2 nM
Compound: O=C(N[C@H](CO)c1ccc(F)c(Cl)c1)N1CCc2cnc(N[C@H]3CC[C@H](O)C3)nc2C1

fraction unbound [1]: 0.03 | IC50 [2]: 21 nM | IC50 [3]: 1 nM | IC50 [4]: 104 nM
Compound: C[C@@H](CO)Nc1ncc2c(n1)CN(C(=O)N[C@H](C)c1ccc(Cl)c(Cl)c1)CC2

IC50 [2]: 88 nM | IC50 [3]: 3 nM
Compound: CC(C)Nc1ncc2c(n1)CN(C(=O)N[C@@H](c1ccc(F)c(Cl)c1)[C@@H](C)O)CC2

IC50 [2]: 160 nM | IC50 [3]: 4 nM
Compound: CC(C)Nc1ncc2c(n1)CN(C(=O)N[C@H](CO)c1ccc(F)c(Cl)c1)CC2
